In patent US4623645A, “Substituted cephalosporin sulfoxides as anti-inflammatory and antidegenerative agents” (Merck & Co., Inc., priority 1983, dated 1986):

Molecular target: T1, Human Polymorphonuclear Leukocyte Elastase (Homo sapiens, UniProt P08246)
T1 sequence (P08246 30-247 limits assumed): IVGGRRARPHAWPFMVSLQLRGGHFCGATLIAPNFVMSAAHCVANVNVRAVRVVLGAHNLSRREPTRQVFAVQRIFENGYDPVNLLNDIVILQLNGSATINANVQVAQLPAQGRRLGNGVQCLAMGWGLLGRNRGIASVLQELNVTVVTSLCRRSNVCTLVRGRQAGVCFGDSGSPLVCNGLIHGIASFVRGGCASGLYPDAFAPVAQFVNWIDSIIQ
Experiment: Inhibition of human polymorphonuclear leukocyte elastase via hydrolysis of N-t-Boc-alanyl-alanyl-prolyl-alanine-p-nitroanilide (Boc-AAPAN)
Type: biochemical
Details: 50% inhibition of the enzyme activity 2 minutes after zero time; crude human PMN extract, 0.2 mM Boc-AAPAN, pH 7.5; read-out: ED50 (the source's name) (converted)

IC50	Structure (SMILES)
5.02 µM	CC(=O)OCC1=C(C(=O)OC(C)(C)C)N2C(=O)C(Cl)(Cl)C2[S+]([O-])C1 (stereo not shown) [7,7-dichloro / OtBu / H]
5.76 µM	CC(=O)OCC1=C(C(=O)OC(C)(C)C)N2C(=O)[C@H](F)[C@H]2[S+]([O-])C1 (stereo partly drawn) [F / OtBu / H, t-Butyl 3-acetyloxymethyl-7α-fluoro-8-oxo-5-thia-1-azabicyclo[4.2.0]oct-2-ene-2-carboxylate-5-oxide]
7.63 µM	CO[C@H]1C(=O)N2C(C(=O)OCc3ccccc3)=C(COC(C)=O)C[S+]([O-])[C@H]12 (stereo partly drawn) [OCH3 / OCH2 .phi. / H, Benzyl 3-acetyloxymethyl-7α-methoxy-8-oxo-5-thia-1-azabicyclo[4.2.0]oct-2-ene-2-carboxylate-5-oxide]
25.2 µM	COC(=O)C1=C(COC(C)=O)C[S+]([O-])C2C(OC)C(=O)N12 (stereo not shown) [OCH3 / OCH3 / H]
